Source: publication PMC6104465, “Synthesis and in vitro and in vivo evaluation of urea-based PSMA inhibitors with increased lipophilicity” (EJNMMI Research, 2018)
Read-outs that look alike come from different tables or passages of the source. Each block holds one compound with its values, some of them ahead of it.

Key:
PSMA [1] = target: T1, PSMA (Homo sapiens, UniProt Q04609); assay: competitive binding assay on LNCaP cells (radioligand 125I-IBA); conditions: read-out: IC50 (affinity to PSMA)
T1 construct: endogenous in cells; host or cells: LNCaP cells (CLS: 300265)
Method: The effect of the lipophilic (aromatic) modifications in the spacer unit of the acetylated PSMA inhibitors 1–9 on the IC50 to PSMA was determined in a competitive binding assay on PSMA-expressing LNCaP cells.
The PSMA affinity was determined as described previously. In brief, 150,000 LNCaP cells were seeded into 24-well plates one day prior to the experiment. […] After removal of the supernatant, the cells were washed once with HBSS and subsequently lysed with 1 n NaOH. Both fractions were quantified in a γ-counter. Using the Graphpad Prism software, binding curves were plotted and IC50 values were extracted. Three independent determinations were performed in triplicate for each compound.

human serum albumin [2] = target: T2, human serum albumin (Homo sapiens, UniProt P02768); parameters: method as in Valko et. al. or Yamazaki et al. [3, 4]; conditions: calibration reference substances; ref Valko et. al. or Yamazaki et al. [3, 4]; cited from earlier work
T2 construct: purchased Daicel Chemical Industries, purchased from Chiral Technologies Europe (Illkirch, France) Chiralpak HSA (5 μm, 50 × 3 mm)

human serum albumin [3] = target: T2, human serum albumin; assay: human serum albumin binding, HPLC on Chiralpak HSA column; type: in vitro ADME; conditions: for Log K HSA: calibration reference substances, logarithmic K from the literature HSA binding, ref [3, 4]; for bound to HSA: HPLC, Chiralpak HSA column
Method: High in vivo plasma protein binding increases the plasma half-life of the radiopharmaceutical and therefore might offer beneficiary effects on the tracer distribution (higher uptake into target tissue) but can also lead to increased background activity especially at early time points. In general, drugs binding to plasma proteins with high affinity feature moderate to high lipophilicity, in many cases due to halogenated aromatic groups. […] Human albumin binding was determined, applying a modified HPLC method.
Mobile phase A was an ammonium acetate buffer (50 mM, pH 6.9), mobile phase B was 2-propanol, the flow rate was 0.5 mL/min, and equilibration with 0% B for 3 min was followed by a gradient of 0% B to 20% B to the end of each run within 45 min. To check the column performance and to conduct the non-linear regression, the HSA column was calibrated each day with nine reference substances. Afterward, the PSMA inhibitors with unknown HSA binding were measured. The retention times and factors together with correlation curve are found in Additional file 1.
HSA binding experiments were performed as previously described. […] For each run, 10 µL of the solution containing the inhibitor was injected into the RP-HPLC system and the retention time measured. […] Non-linear regression was established with OriginPro 2016G.

PSMA [4] = target: T1, PSMA; conditions: LNCaP cells 150,000 cells/well, 4 °C, 1 h, c(125I-IBA) = 0.2 nM; mean ± SD; ref [17]; read-out: IC50 (affinity to PSMA); cited from earlier work
[5] = LNCaP cells 150,000 cells/well, 4 °C, 1 h, c(125I-IBA) = 0.2 nM, mean ± SD (n = 3)

T1 sequence (Q04609 whole entry): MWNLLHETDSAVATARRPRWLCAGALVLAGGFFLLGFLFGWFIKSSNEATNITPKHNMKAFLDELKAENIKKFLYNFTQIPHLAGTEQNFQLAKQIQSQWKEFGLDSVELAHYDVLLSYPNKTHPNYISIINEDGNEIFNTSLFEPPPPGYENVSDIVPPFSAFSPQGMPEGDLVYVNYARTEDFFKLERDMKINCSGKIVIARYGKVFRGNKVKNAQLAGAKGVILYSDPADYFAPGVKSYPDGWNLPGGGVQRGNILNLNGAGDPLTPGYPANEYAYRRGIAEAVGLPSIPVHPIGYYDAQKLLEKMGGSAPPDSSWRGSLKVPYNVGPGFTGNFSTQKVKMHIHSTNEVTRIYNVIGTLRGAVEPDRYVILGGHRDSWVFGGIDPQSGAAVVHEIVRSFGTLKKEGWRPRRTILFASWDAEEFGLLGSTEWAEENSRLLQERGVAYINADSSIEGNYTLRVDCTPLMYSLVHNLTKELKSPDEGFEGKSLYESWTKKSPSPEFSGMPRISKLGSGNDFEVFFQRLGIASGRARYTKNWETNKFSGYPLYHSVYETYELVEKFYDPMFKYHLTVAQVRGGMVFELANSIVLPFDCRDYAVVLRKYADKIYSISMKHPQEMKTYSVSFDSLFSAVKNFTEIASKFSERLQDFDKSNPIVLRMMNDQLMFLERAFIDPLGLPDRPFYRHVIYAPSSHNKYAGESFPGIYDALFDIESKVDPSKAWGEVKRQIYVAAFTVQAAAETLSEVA
T2 sequence (P02768 25-609): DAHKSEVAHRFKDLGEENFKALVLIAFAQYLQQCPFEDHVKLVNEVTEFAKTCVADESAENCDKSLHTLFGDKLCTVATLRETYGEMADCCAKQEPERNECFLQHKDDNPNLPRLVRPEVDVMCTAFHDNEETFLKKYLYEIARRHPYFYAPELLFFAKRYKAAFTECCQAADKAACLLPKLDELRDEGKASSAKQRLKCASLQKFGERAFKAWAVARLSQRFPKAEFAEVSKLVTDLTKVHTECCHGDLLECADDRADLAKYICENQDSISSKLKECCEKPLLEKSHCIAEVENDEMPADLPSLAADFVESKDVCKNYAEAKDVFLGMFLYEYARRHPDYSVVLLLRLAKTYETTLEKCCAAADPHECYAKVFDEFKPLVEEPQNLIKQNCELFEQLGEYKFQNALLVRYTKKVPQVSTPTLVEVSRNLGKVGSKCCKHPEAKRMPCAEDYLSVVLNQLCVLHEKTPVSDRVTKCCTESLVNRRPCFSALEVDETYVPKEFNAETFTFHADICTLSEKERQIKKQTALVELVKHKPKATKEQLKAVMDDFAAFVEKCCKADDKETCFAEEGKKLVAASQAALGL

Compound: CC(=O)N[C@@H](Cc1ccc(O)cc1)C(=O)N[C@@H](Cc1c[nH]c2ccccc12)C(=O)N[C@@H](CCCCNC(=O)CCCCCCC(=O)NCCCC[C@H](NC(=O)N[C@@H](CCC(=O)O)C(=O)O)C(=O)O)C(=O)O [PSMA inhibitor 2, Ac-YWK(Sub-KuE)]
IC50 (PSMA [1]): 6.8 ± 3.3 nM

Compound: ^natLu-DOTAGA-(I-y)fk(Sub-KuE) [^natLu-PSMA I&T]
IC50 (PSMA [4]): 7.9 ± 2.4 nM | bound to HSA (human serum albumin [3]): 79%

Compound: Nc1ccccc1 [Aniline]
Lit. HSA% (literature value of human serum albumin binding) (human serum albumin [2]): 14.06% | Log K HSA (human serum albumin [3]): -0.79

Compound: CC(=O)N[C@@H](Cc1ccc(O)cc1)C(=O)N[C@@H](Cc1cccc2ccccc12)C(=O)N[C@@H](CCCCNC(=O)CCCCCCC(=O)NCCCC[C@H](NC(=O)N[C@@H](CCC(=O)O)C(=O)O)C(=O)O)C(=O)O [PSMA inhibitor 5, Ac-Y-1-Nal-K(Sub-KuE)]
IC50 (PSMA [1]): 4.3 ± 0.9 nM

Compound: CC(=O)N[C@@H](Cc1ccc(O)cc1)C(=O)N[C@@H](Cc1ccccc1)C(=O)N[C@@H](CCCCNC(=O)CCCCCCC(=O)NCCCC[C@H](NC(=O)N[C@@H](CCC(=O)O)C(=O)O)C(=O)O)C(=O)O [PSMA inhibitor 1, Ac-YFK(Sub-KuE)]
IC50 (PSMA [1]): 15 ± 1.3 nM

Compound: ^natLu-DOTAGA-y-2-nal-k(Sub-KuE) [^natLu-10]
IC50 (PSMA [1]; [5]): 2.1 ± 0.8 nM | bound to HSA (human serum albumin [3]): 83%

Compound: ^natGa-DOTAGA-(I-y)fk(Sub-KuE) [^natGa-PSMA I&T]
IC50 (PSMA [4]): 9.3 ± 3.3 nM

Compound: O=C(O)c1ccccc1 [Benzoic Acid]
Lit. HSA% (literature value of human serum albumin binding) (human serum albumin [2]): 34.27%

Compound: CC(=O)N[C@@H](Cc1ccc(O)cc1)C(=O)N[C@@H](Cc1ccc(-c2ccccc2)cc1)C(=O)N[C@@H](CCCCNC(=O)CCCCCCC(=O)NCCCC[C@H](NC(=O)N[C@@H](CCC(=O)O)C(=O)O)C(=O)O)C(=O)O [PSMA inhibitor 4, Ac-Y-(Biphenyl-A)K(Sub-KuE)]
IC50 (PSMA [1]): 139 ± 117 nM

Compound: O=C(O)CC[C@H](NC(=O)N[C@@H](CCCCNC(=O)CCCCCCC(=O)NCCCC[C@@H](NC(=O)[C@@H](Cc1ccccc1)NC(=O)[C@@H](Cc1ccc(O)c(I)c1)NC(=O)CCC(C(=O)O)N1CCN(CC(=O)O)CCN(CC(=O)O)CCN(CC(=O)O)CC1)C(=O)O)C(=O)O)C(=O)O (some centres unmarked) [PSMA I&T, DOTAGA-(I-y)fk(Sub-KuE)]
IC50 (PSMA [4]): 10.2 ± 3.5 nM

Compound: Oc1ccccc1 [Phenol]
Lit. HSA% (literature value of human serum albumin binding) (human serum albumin [2]): 20.69% | Log K HSA (human serum albumin [3]): -0.59

Now from value to compound, other results behind:

IC50 (PSMA [1]; [5]): 4.6 ± 0.9 nM
Compound: O=C(O)CC[C@H](NC(=O)N[C@@H](CCCCNC(=O)[C@@H](Cc1ccc(I)cc1)NC(=O)CCCC(=O)NCCCC[C@@H](NC(=O)[C@@H](Cc1ccc2ccccc2c1)NC(=O)[C@@H](Cc1ccc(O)cc1)NC(=O)CCC(C(=O)O)N1CCN(CC(=O)O)CCN(CC(=O)O)CCN(CC(=O)O)CC1)C(=O)O)C(=O)O)C(=O)O (some centres unmarked) [PSMA inhibitor 11, DOTAGA-y-2-nal-k((I-f)-Glut-KuE)]

IC50 (PSMA [1]; [5]): 9.3 ± 2.9 nM
Compound: ^natGa-DOTAGA-y-2-nal-k((I-f)-Glut-KuE) [^natGa-11]

Log K HSA (human serum albumin [3]): 1.69
Compound: COc1ccc(Cl)cc1C(=O)NCCc1ccc(S(=O)(=O)NC(=O)NC2CCCCC2)cc1 [Glibenclamide]
Lit. HSA% (literature value of human serum albumin binding) (human serum albumin [2]): 99.00%

Log K HSA (human serum albumin [3]): 1.20
Compound: CCCN(CCC)S(=O)(=O)c1ccc(C(=O)O)cc1 [Probenecid]
Lit. HSA% (literature value of human serum albumin binding) (human serum albumin [2]): 95.00%

IC50 (PSMA [1]): 3.8 ± 0.6 nM
Compound: CC(=O)N[C@@H](Cc1ccc(O)cc1)C(=O)N[C@@H](Cc1cc(I)c(O)c(I)c1)C(=O)N[C@@H](CCCCNC(=O)CCCCCCC(=O)NCCCC[C@H](NC(=O)N[C@@H](CCC(=O)O)C(=O)O)C(=O)O)C(=O)O [PSMA inhibitor 8, Ac-Y(3,5-di-I-Y)K(Sub-KuE)]

IC50 (PSMA [1]): 3.9 ± 1.7 nM
Compound: CC(=O)N[C@@H](Cc1ccc(O)cc1)C(=O)N[C@@H](Cc1ccc2ccccc2c1)C(=O)N[C@@H](CCCCNC(=O)CCCCCCC(=O)NCCCC[C@H](NC(=O)N[C@@H](CCC(=O)O)C(=O)O)C(=O)O)C(=O)O [PSMA inhibitor 6, Ac-Y-2-Nal-K(Sub-KuE)]

IC50 (PSMA [1]; [5]): 8.5 ± 2.5 nM
Compound: O=C(O)CC[C@H](NC(=O)N[C@@H](CCCCNC(=O)CCCCCCC(=O)NCCCC[C@@H](NC(=O)[C@@H](Cc1ccc2ccccc2c1)NC(=O)[C@@H](Cc1ccc(O)cc1)NC(=O)CCC(C(=O)O)N1CCN(CC(=O)O)CCN(CC(=O)O)CCN(CC(=O)O)CC1)C(=O)O)C(=O)O)C(=O)O (some centres unmarked) [PSMA inhibitor 10, DOTAGA-y-2-nal-k(Sub-KuE)]

IC50 (PSMA [1]; [5]): 9.8 ± 3.2 nM
Compound: ^natGa-DOTAGA-y-2-nal-k(Sub-KuE) [^natGa-10]

IC50 (PSMA [1]): 7.2 ± 0.9 nM
Compound: CC(=O)N[C@@H](Cc1ccc(O)cc1)C(=O)N[C@@H](Cc1ccc(O)c(C)c1)C(=O)N[C@@H](CCCCNC(=O)CCCCCCC(=O)NCCCC[C@H](NC(=O)N[C@@H](CCC(=O)O)C(=O)O)C(=O)O)C(=O)O [PSMA inhibitor 9, Ac-Y(3-CH3-Y)K(Sub-KuE)]

IC50 (PSMA [1]; [5]): 6.1 ± 1.6 nM | bound to HSA (human serum albumin [3]): 97%
Compound: ^natLu-DOTAGA-y-2-nal-k((I-f)-Glut-KuE) [^natLu-11]

IC50 (PSMA [1]): 7.4 ± 0.5 nM
Compound: CC(=O)N[C@@H](Cc1ccc(O)cc1)C(=O)N[C@@H](Cc1ccc([N+](=O)[O-])cc1)C(=O)N[C@@H](CCCCNC(=O)CCCCCCC(=O)NCCCC[C@H](NC(=O)N[C@@H](CCC(=O)O)C(=O)O)C(=O)O)C(=O)O [PSMA inhibitor 7, Ac-Y(4-NO2-F)K(Sub-KuE)]
